Assay results published in patent US9241951B2, “Of gastrointestinal health, immunity and performance by dietary intervention” (BIOATLANTIS LTD, priority 2009, dated 2016).

How the values were obtained:
[1] = Piglet performance with lactose and SWE, Example 3; assay type: in vivo, pig
Lactobacilli [2] = test: Faecal microbiology, Example 3; assay type: in vivo, pig; settings: SWE − or +
Description: (§1) This experiment was carried out over two consecutive periods of 25 days. 240 piglets were selected after weaning at 24 days and assigned to one of four dietary treatments. Pigs in period 1 and 2 had initial live weights of 7.2 Kg and 7.8 Kg (±0.9 Kg), respectively. This experiment was designed as a 2×2 factorial. During the experiment (days 0-25) piglets were offered the following diets: (T1) 150 g/Kg lactose; (T2) 150 g/Kg lactose+SWE; (T3) 250 g/Kg lactose (T4) 250 g/Kg lactose+SWE. SWE was included at 2.8 g/Kg and derived from Laminaria digitata. It contained laminarin (112 g/Kg), fucoidan (89 g/Kg) and ash (799 g/Kg).
(§2) Pigs were housed in groups of 4 (n=15/treatment) and weighed at weaning (day 0), day 7, 14 and 25. Pigs were fed ad libitum. Fresh faecal samples were collected on days 10 to 15 for determination of nutrient digestibility and VFA analysis. Fresh faecal samples were collected on day 10 for enumeration of E. coli and Lactobacilli (O'Connell et al., 2005).
(§3) 1 g of faecal sample was serially diluted in maximum recovery diluent (MRD; Oxoid, Basingstoke, UK) and plated on selective agars. Lactobacillus spp. were isolated on de Man Rogosa Sharp agar (MRS, Oxoid). The API 50 CHL (BioMerieux, France) kit was used to confirm suspect Lactobacilli spp. E. coli species were isolated on MacConkey agar (Oxoid). Suspect colonies were confirmed with API 20E (BioMerieux, France).

Escherichia coli = test: Faecal microbiology, Example 3; assay type: in vivo, pig; settings: SWE − or +
Description: as §1, §2, §3

[3] = Coefficient of total tract apparent digestibility, Example 3; assay type: in vivo, pig; settings: SWE − or +
Lactobacilli [4] = test: Faecal microbiology, Example 4; assay type: in vivo, pig
Text: (§4) One hundred and ninety two piglets were weaned at twenty four days of age, with an initial live weight of 6.4±0.785 Kg and assigned to one of four dietary treatments or 21 days post weaning. The dietary treatments consisted of (T1) basal diet, (T2) basal diet with 300 ppm LAM, (T3) basal diet with 236 ppm FUC, (T4) Basal diet with 300 ppm LAM and 236 ppm FUC. Diets were formulated to have identical concentrations of digestible energy (DE) (16 MJ/Kg) and ileal digestible lysine (14 g/Kg). All amino acid requirements were met relative to lysine (Close, 1994). Chromium III oxide was added to the diets for determination of nutrient digestibility. The LAM and FUC were derived from Laminaria hyperborea.
(§5) Piglets were housed in groups of 4 and offered feed twice daily. Water was supplied ad-libitum. Any pig displaying symptoms of illness was treated appropriately and recorded. Pigs were weighed on day 0 (day of weaning), 7, 14 and 21. Feed intake was monitored weekly. Fresh faecal samples were taken on day 10 and were analysed for E. coli and Lactobacilli concentrations. Faeces samples were collected from each pen on day 12-17 and were retained for chemical analysis. Fresh faecal samples were removed on day 14 and were frozen and retained for volatile fatty acid analysis. Fresh faecal samples were taken on day 17 for pH determination.
A sample was serially diluted (1:10) in 9.0 ml aliquots of maximum recovery diluent (MRD, Oxoid, Basingstoke, UK), and spread plated (0.1 ml aliquots) onto selective agars. Lactobacillus spp. were isolated on de Man, Rogosa, Sharp agar (MRS, Oxoid) with overnight incubation at 37° C. in 5% CO2. The API 50 CHL (BioMerieux, France) kit was used to confirm suspect Lactobacilli spp. E. coli species were isolated on MacConkey agar (Oxoid), following aerobic incubation at 37° C. for 18-24 hours. Suspect colonies were confirmed with API 20E (BioMerieux, France).

[5] = Pig performance post weaning with LAM and FUC, Example 4; assay type: in vivo; settings: for ADG: days 14-21
Text: as §4, §5

[6] = Day 0-7, diet with 150 g/Kg lactose, SWE 2.8 g/Kg where included
[7] = Day 0-7, diet with 250 g/Kg lactose, SWE 2.8 g/Kg where included
[8] = Day 0-25, diet with 150 g/Kg lactose, SWE 2.8 g/Kg where included
[9] = Day 0-25, diet with 250 g/Kg lactose, SWE 2.8 g/Kg where included
[10] = Day 7-14, diet with 150 g/Kg lactose, SWE 2.8 g/Kg where included
[11] = Day 7-14, diet with 250 g/Kg lactose, SWE 2.8 g/Kg where included
[12] = Day 14-25, diet with 150 g/Kg lactose, SWE 2.8 g/Kg where included
[13] = Day 14-25, diet with 250 g/Kg lactose, SWE 2.8 g/Kg where included

OC[C@H]1O[C@@H](O[C@H]2[C@H](O)[C@@H](O)C(O)O[C@@H]2CO)[C@H](O)[C@@H](O)[C@H]1O (stereo partly drawn) [Lactose, lactose]
Average Daily Gain (ADG) ([1]; Day 0-7, diet with 150 g/Kg lactose, SWE 2.8 g/Kg (L. digitata) where included): 0.100 kg/day | Average Daily Feed Intake (ADFI) [1, 6]: 0.242 kg/day | Gain: Feed ratio [1, 6]: 0.413 Kg/Kg | Average Daily Gain (ADG) ([1]; Day 0-7, diet with 250 g/Kg lactose, SWE 2.8 g/Kg (L. digitata) where included): 0.146 kg/day | Average Daily Feed Intake (ADFI) [1, 7]: 0.239 kg/day | Gain: Feed ratio [1, 7]: 0.589 Kg/Kg | Average Daily Feed Intake (ADFI) [1, 8]: 0.446 kg/day | Average Daily Gain (ADG) [1, 8]: 0.275 kg/day | Gain: Feed ratio [1, 8]: 0.603 Kg/Kg | Average Daily Feed Intake (ADFI) [1, 9]: 0.458 kg/day | Average Daily Gain (ADG) [1, 9]: 0.287 kg/day | Gain: Feed ratio [1, 9]: 0.619 Kg/Kg | Average Daily Feed Intake (ADFI) [1, 10]: 0.415 kg/day | Average Daily Gain (ADG) [1, 10]: 0.302 kg/day | Gain: Feed ratio [1, 10]: 0.747 Kg/Kg | Average Daily Feed Intake (ADFI) [1, 11]: 0.450 kg/day | Average Daily Gain (ADG) [1, 11]: 0.325 kg/day | Gain: Feed ratio [1, 11]: 0.729 Kg/Kg | Average Daily Feed Intake (ADFI) [1, 12]: 0.682 kg/day | Average Daily Gain (ADG) [1, 12]: 0.438 kg/day | Gain: Feed ratio [1, 12]: 0.633 Kg/Kg | Average Daily Feed Intake (ADFI) [1, 13]: 0.683 kg/day | Average Daily Gain (ADG) [1, 13]: 0.388 kg/day | Gain: Feed ratio [1, 13]: 0.569 Kg/Kg | Bacterial populations Lactobacilli (Lactobacilli [2]; diet Lactose 150 g/Kg): 8.46 Log10 CFU/g faeces | Bacterial populations Lactobacilli (Lactobacilli [2]; diet Lactose 250 g/Kg): 8.19 Log10 CFU/g faeces | Bacterial populations Escherichia coli (Escherichia coli; diet Lactose 150 g/Kg): 6.30 Log10 CFU/g faeces | Bacterial populations Escherichia coli (Escherichia coli; diet Lactose 250 g/Kg): 5.70 Log10 CFU/g faeces | Digestibility Ash ([3]; diet Lactose 150 g/Kg): 53.30% | Digestibility DM ([3]; diet Lactose 150 g/Kg): 87.75% | Digestibility GE ([3]; diet Lactose 150 g/Kg): 85.93% | Digestibility N ([3]; diet Lactose 150 g/Kg): 83.69% | Digestibility NDF ([3]; diet Lactose 150 g/Kg): 37.55% | Digestibility OM ([3]; diet Lactose 150 g/Kg): 89.16% | Digestibility Ash ([3]; diet Lactose 250 g/Kg): 72.80% | Digestibility DM ([3]; diet Lactose 250 g/Kg): 91.34% | Digestibility GE ([3]; diet Lactose 250 g/Kg): 90.22% | Digestibility N ([3]; diet Lactose 250 g/Kg): 86.86% | Digestibility NDF ([3]; diet Lactose 250 g/Kg): 61.91% | Digestibility OM ([3]; diet Lactose 250 g/Kg): 92.24%

fucoidan
faecal Lactobacilli numbers (Lactobacilli [4]; FUC diet (236 ppm) v basal diet (8.93)): 9.22 | faecal lactobacilli populations (Lactobacilli [4]; FUC included with LAM): no effect | ADG ([5]; FUC added to a LAM diet): no effect | ADG ([5]; FUC diet (236 ppm) compared to basal diet): significantly higher | average daily feed intake ([5]; weaned pigs, 21 days, LAM 300 ppm, FUC 236 ppm): no effect
